From US8518966B2, “Amidoalkyl-8-azabicyclo[3.2.1]octane compounds as mu opioid receptor antagonists” (Theravance, Inc., priority 2007, dated 2013) come the findings set out here.

In assay [1] the target is T1, human mu opioid receptor (Homo sapiens, UniProt P35372).
T1 construct: host or cells: CHO-K1
The assay can be described thus: biochemical. In kind it is binding.

The target of assay [2] is T1, human mu opioid receptor. The assay can be described thus: biochemical. To be noted: read-out: intrinsic activity (IA), bound GTP-Eu relative to DAMGO (IA=100).
Assay [3] deals with loperamide-induced delayed gastric emptying. The assay can be described thus: Rat gastric emptying assay (reversal of loperamide-induced delayed gastric emptying). The assay is classed as in vivo. The following applies: administered orally, loperamide 1 mg/kg s.c.

T1 sequence (P35372 whole entry): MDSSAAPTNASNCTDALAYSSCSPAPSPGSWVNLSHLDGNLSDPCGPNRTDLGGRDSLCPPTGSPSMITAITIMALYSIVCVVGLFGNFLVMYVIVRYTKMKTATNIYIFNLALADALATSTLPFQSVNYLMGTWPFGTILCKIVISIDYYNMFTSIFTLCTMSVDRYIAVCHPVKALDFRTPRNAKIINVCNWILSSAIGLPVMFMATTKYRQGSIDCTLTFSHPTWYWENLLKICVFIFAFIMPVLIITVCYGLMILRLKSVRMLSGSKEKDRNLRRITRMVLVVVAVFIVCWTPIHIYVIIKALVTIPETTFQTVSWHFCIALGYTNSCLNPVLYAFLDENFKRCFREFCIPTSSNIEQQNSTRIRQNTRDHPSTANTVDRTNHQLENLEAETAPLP

A word on the Ki: it is a dissociation constant, usually derived from enzyme kinetics or from competition with a known ligand. A higher Ki goes with lower affinity. Consider `CCC(CC)CN(CCCN1[C@@H]2CC[C@H]1C[C@@H](c1cccc(C(N)=O)c1)C2)C(=O)CS(C)(=O)=O` [Example 6, 3-endo-(8-{3-[(2-ethylbutyl)-(2-methanesulfonyl-acetyl)amino]propyl}-8-azabicyclo[3.2.1]oct-3-yl)-benzamide], for which the Ki on human mu opioid receptor [1] is 0.126 nM. In addition, the Emax on human mu opioid receptor [2] was found to be 1%.

What is called pKi is the Ki on a negative log10 scale, so that one unit is a factor of ten. Read a low pKi as a large Ki. For the compound `CCC(CC)CN(CCCN1[C@@H]2CC[C@H]1C[C@@H](c1cccc(C(N)=O)c1)C2)C(=O)CO` [Example 1, 3-endo-(8-{3-[(2-ethylbutyl)-(2-hydroxyacetyl)-amino]propyl}-8-aza-bicyclo[3.2.1]oct-3-yl)-benzamide], the “ID50, dose required for 50% reversal of the effects of loperamide” value in assay [3] worked out at 0.29 mg/kg. The “pKi at the human mu opioid receptor” value at human mu opioid receptor [1] is recorded as 10.0. Moreover, the Emax at human mu opioid receptor [2] is 3%.

As for `CCC(CC)CN(CCN1[C@@H]2CC[C@H]1C[C@@H](c1cccc(C(N)=O)c1)C2)C(=O)CS(C)(=O)=O` [Example 7, 3-endo-(8-{2-[(2-ethylbutyl)-(2-methanesulfonyl-acetyl)amino]ethyl}-8-azabicyclo[3.2.1]oct-3-yl)-benzamide], the “ID50, dose required for 50% reversal of the effects of loperamide” value in assay [3] worked out at 0.53 mg/kg. The Ki at human mu opioid receptor [1] was 0.158 nM. Moreover, the Emax on human mu opioid receptor [2] worked out at 3%.
